According to patent US20200375929A1, “METHODS AND COMPOSITIONS FOR THE TREATMENT OF DISEASES ASSOCIATED WITH CANCER, INFLAMMATION, OR IMMUNE RESPONSE” (Washington University, priority 2017, published 2020):
Entries after “also recorded” stand apart in the source; their conditions may differ.

What was measured:
[1] = test system: Nrf2; test: Nrf2 response in BMDMs (western blot, target genes); format: cell-based, mouse; settings: 12 h treatment
Method: BMDM were prepared from 6- to 12-week-old mice as described 1 and cultured in RMPI-1640 medium supplemented with 10% fetal bovine serum (FBS), 2 mM L-glutamine, and 100 U/mL penicillin-streptomycin and mouse recombinant M-CSF ([…], Peprotech). For experiments, cells were seeded at concentration 10^6 cells/mL in tissue culture plates of various formats. The cells were treated with DI (250 μM (unless stated otherwise), cat #592498, Sigma), DMF (50 μM (unless stated otherwise), cat #242926, Sigma), 3-(ethoxycarbonyl)but-3-enoic acid (3MI, 5 μM, Aris Pharmaceuticals Inc.), 4-ethoxy-2-methylene-4-oxobutanoic acid (MI, Aris Pharmaceuticals Inc.) for 12 h and activated with lipopolysaccharide (LPS; 100 ng/mL; E. coli 0111:B4, Sigma) for 1 h or as indicated. In some experiments cells were stimulated with combination of LPS (20 ng/mL) and IFN-γ (50 ng/mL; Peprotech). In some experiments cells were treated with α-tocopherol (AT, 10 μM; Sigma), MitoTEMPO (MT, 500 μM; Sigma), N-acetylcysteine (NAC, 1 mM, Sigma), ethylester of GSH (EtGSH; 1 mM, Santa Cruz) or buthionene sulfoximine (BSO, 500 μM, Sigma) alone or in combination with DI for 12 h. […]
(§1) Cells were lysed in RIPA Lysis Buffer System (Santa Cruz) and heat-denatured at 95° C. for 5 min in reducing sample buffer (BioRad). […] Non-specific binding was blocked with 5% skim milk (or 5% BSA when phospho-proteins were analyzed), and membranes were probed with primary antibodies specific to Nrf2 (#12721), HO-1 (#70081), IκBζ (mouse specific, #93726), IκBζ(#9244), ATF3 (#D2Y5W), IRAK1 (#4504; sensitivity of IRAK1 detection diminishes upon IRAK1 K63 ubiquitination), phospho-IKK (Ser176/180, #2697), p62/SQSTM1 (#5114), phospho-eIF2α (Ser51, #9721), eIF2α (#5324) from Cell Signaling; GAPDH (sc-25778), IκBα (sc-1643), ATF3 (sc-188), SDHA (sc-166909) from Santa Cruz; NQO1 (ab28947) from Abeam, followed by incubation with anti-rabbit-HRP (1:10,000; sc-2030) or anti-mouse-HRP (1:10,000; sc-2031) from Santa Cruz and Clarity western ECL substrate (Bio-Rad). […]

[2] = test system: Regnase-1; test: Regnase-1 protein levels in BMDMs (western blot); format: cell-based, mouse; settings: unstimulated macrophages, DI
Method: BMDM were prepared from 6- to 12-week-old mice as described 1 and cultured in RMPI-1640 medium supplemented with 10% fetal bovine serum (FBS), 2 mM L-glutamine, and 100 U/mL penicillin-streptomycin and mouse recombinant M-CSF ([…], Peprotech). For experiments, cells were seeded at concentration 10^6 cells/mL in tissue culture plates of various formats. […]
as §1

[3] = test system: BMDMs; test: Glutathione (GSH) measurement in BMDMs; format: cell-based, mouse; settings: DI 250 μM
Method: Total GSH concentration in cells was determined by GSH/GSSH Ratio Detection Assay Kit (Abeam) according to manufacturer protocol. Briefly, 106 BMDMs were lysed in 100 μL of 0.5% NP-40 in PBS, pH 6. Samples were deproteinized using trichloroacetic acid and neutralized by addition of 1M NaHCO3 to achieve pH 4-6. Collected extracts were diluted with supplied assay buffer and directly used for GSH measurement.

[4] = test system: IκBζ target genes (Defb4, S100a7a, Lcn2, S100a9); test: IκBζ target gene expression in IL-17A-stimulated mouse keratinocytes (qPCR); format: cell-based; settings: DI 12 h, IL-17A 4 h
Method: RNA from cultured cells was isolated using a Total RNA I kit (OMEGA). RNA from mouse ear skin was extracted using RNAeasy mini kit (Qiagen) after tissue disruption with sterile zirconium beads on a MagNA Lyser (Roche). Isolated RNA was reverse transcribed using AffinityScript Multi-Temp reverse transcriptase (Agilent Technologies) according to the manufacturer's protocol. Reactions were performed in 96-well plates using a SYBR Green PCR Master mix (Thermo Fisher Scientific) using a LightCycler® 96 or LightCycler® 480 (Roche Diagnostics). All assays were performed at least in duplicates, and reaction mixtures in 20 μL volumes (96-plate) or 10 μL volumes (384-plate) were processed under the following cycling conditions: initial 10 min denaturation at 95° C., followed by 40 cycles at 95° C. for 10 s, 60° C. for 1 min. Threshold cycle (CT) values for each sample were determined by automated threshold analysis. Expression levels of all mRNAs were normalized to reference gene Actb in BMDMs or to Rpl19 in mouse keratinocytes and tissue samples; to ACTB in human blood monocytes or RPLP0 in human keratinocytes. The relative increase in the expression level of a gene was normalized to the level of expression in unstimulated control cells in each experiment. IκBζ-dependent genes selected for analysis in macrophages were previously published. […]

[5] = test system: BMDMs / BV2 cells; test: Intracellular ROS by flow cytometry; format: cell-based, mouse; settings: DI 250 μM
Method: (§2) For ROS measurements, cells were treated with DI (250 μM), loaded with 10 μM CM-H2DCFDA (Invitrogen) at RT for 30 min in Hank's balanced salt solution (HBSS). After incubation, cell were rinsed with warm HBSS, harvested and directly analyzed. Mean fluorescent intensity (MFI) of living cells is shown. For Nfkbiz 3′UTR reporter analysis GFP signal was determined in live cells. For analysis of cell viability cells were stained with propidium iodide (1 μg/mL) and percentage of negative cells was plotted. Cells were acquired on CantoII or LSRII flow cytometers (Becton Dickinson), and data were analyzed with FlowJo v.9.5.2 software (Tree Star). For gating strategy see e.g., FIG. 25.

[6] = test system: human primary keratinocytes; test: Viability of primary keratinocytes (propidium iodide, flow cytometry); format: cell-based; settings: DI 12 h
Method: as §2
Primary keratinocytes were isolated from C57BL/6 WT newborn mice or human foreskins as previously described. 2×10^5 cells in 1 ml of KFSM media (Gibco cat #10725-018) [Ca2+ at 0.05 mM (mouse) and 0.09 mM (human)] were plated in 12-well tissue culture plates. After 2-3 days of cultivation, mouse or human cells were treated with DI for 12 hours and then stimulated with mouse recombinant IL-17A (100 ng/mL; cat #421-ML, R&D Systems) or human recombinant IL-17A (100 ng/mL; cat #7955-IL, R&D Systems) for 4 h or as indicated.

C=C(CC(=O)OC)C(=O)OC [DI, dimethyl itaconate]
Nrf2 response (Nrf2 protein, target genes) [1]: triggered strong Nrf2 response; also recorded: increased | Regnase-1 protein [2]: up-regulated Regnase-1 | GSH/GSSG ratio [3]: substantial drop | cellular GSH [3]: substantial drop in cellular GSH; also recorded: substantial drop of cellular GSH concentration | expression of IκBζ target genes [4]: downregulated | intracellular ROS production [5]: increased intracellular ROS; also recorded: increase in ROS generation | viability of primary keratinocytes [6]: not affected
